Earlier results in patent US20260335285A1, “A TOPICAL COMPOSITION COMPRISING CHLORINE E6 AND ZINC L-PYROGLUTAMATE” (ZXA GROUP LTD., priority 2022, published 2026).

Details: known in the art; topical

Which “delivery into the skin” value does the source give for `C=Cc1c(C)c2cc3nc(c(CC(=O)O)c4[nH]c(cc5nc(cc1[nH]2)C(C)=C5CC)c(C)c4C(=O)O)[C@@H](CCC(=O)O)[C@@H]3C` [chlorine e6, (17S,18S)-18-(2-carboxyethyl)-20-(carboxymethyl)-12-ethenyl-7-ethyl-3,8,13,17-tetramethyl-17,18,22,23-tetrahydroporphyrin-2-carboxylic acid] here?
Its value is “inefficient delivery into the skin”.
